Among the data in patent US5750648A, “Retroviral protease inhibitors and combinations thereof” (G.D. Searle & Co., priority 1994, dated 1998) are IC50, EC50 and inhibition values, retold here.

Each structure is given as a SMILES string. Counter-ions that a name gives are not always drawn.

The target in one assay is HIV protease (Human immunodeficiency virus type 1 group M subtype B, UniProt P04585). Put plainly: HIV protease enzyme assay (fluorescent substrate 2-aminobenzoyl-Ile-Nle-Phe(p-NO2)-Gln-ArgNH2). Type of assay: biochemical. The conditions noted are these: for IC50: concentration at which the inhibitor reduces enzyme activity by 50%, enzyme about 12.3 nanomolar, substrate about 80 μM, pH 6.4. From the text: The compounds of the present invention are advantageously effective HIV protease inhibitors. Utilizing an enzyme assay as described below, the compounds set forth in the examples herein disclosed inhibited the HIV enzyme. The preferred compounds of the present invention and their calculated IC50 (the concentration at which the inhibitor compound reduces enzyme activity by 50%) values are shown in Table 2.
The enzyme method is as follows. The substrate is 2-aminobenzoyl-Ile-Nle-Phe(p-NO2)-Gln-ArgNH2. The positive control is MVT-101 (Miller, M. et al, Science, 246, 1149 (1989)). The assay buffer is 20 mM sodium phosphate, pH 6.4, 20% glycerol, 1 mM EDTA, 1 mM DTT and 0.1% CHAPS. The substrate is dissolved in DMSO, then diluted 10 fold in assay buffer. Final substrate concentration in the assay is about 80 μM. HIV protease is diluted in the assay buffer to a final enzyme concentration of about 12.3 nanomolar, based on a molecular weight of 10,780.
The final concentration of DMSO is about 14% and the final concentration of glycerol is about 18%. The test compound is dissolved in DMSO and diluted in DMSO to ten times (10×) the test concentration. Ten microliters (10 μL) of the enzyme preparation is added, the materials mixed and then the mixture is incubated at ambient temperature for 15 minutes. The enzyme reaction is initiated by the addition of 40 μL of substrate. The increase in fluorescence is monitored at 4 time points (0, 8, 16 and 24 minutes) at ambient temperature. Each assay is carried out in duplicate wells.

The subject of a further assay is HIV-1 in CEM cells. The assay can be described thus: CEM cell assay, HIV inhibition in acutely infected cells (MTT). Type of assay: cell-based. Particulars: Human immunodeficiency virus 1, CCRF-CEM, 168 h; HIV-1 infected CEM cells, 7 days. Here is the method:
The effectiveness of selected compounds of the present invention were determined in the above-described enzyme assay and in a CEM cell assay. The HIV inhibition assay method of acutely infected cells is an automated tetrazolium based calorimetric assay essentially that reported by Pauwles et al, J. Virol. Methods 20, 309-321 (1988). Assays were performed in 96-well tissue culture plates. CEM cells, a CD4+ cell line, were grown in RPMI-1640 medium (Gibco) supplemented with a 10% fetal calf serum and were then treated with polybrene (2 μg/ml). An 80 μl volume of medium containing 1×10^4 cells was dispensed into each well of the tissue culture plate. To each well was added a 100 μl volume of test compound dissolved in tissue culture medium (or medium without test compound as a control) to achieve the desired final concentration and the cells were incubated at 37° C. for 1 hour. A frozen culture of HIV-1 was diluted in culture medium to a concentration of […] (TCID50=the dose of virus that infects 50% of cells in tissue culture), and a 20 μL volume of the virus sample (containing 1000 TCID50 of virus) was added to wells containing test compound and to wells containing only medium (infected control cells). Several wells received culture medium without virus (uninfected control cells). Likewise, the intrinsic toxicity of the test compound was determined by adding medium without virus to several wells containing test compound. In summary, the tissue culture plates contained the following experiments: In experiments 2 and 4 the final concentrations of test compounds were 1, 10, 100 and 500 μg/ml. Either azidothymidine (AZT) or dideoxyinosine (ddI) was included as a positive drug control. […] DMSO was added to all control wells at an appropriate concentration. Following the addition of virus, cells were incubated at 37° C. in a humidified, 5% CO2 atmosphere for 7 days. Test compounds could be added on days 0, 2 and 5 if desired. On day 7, post-infection, the cells in each well were resuspended and a 100 μl sample of each cell suspension was removed for assay. A 20 μL volume of a 5 mg/ml solution of 3-(4,5-dimethylthiazol-2-yl)-2,5-diphenyltetrazolium bromide (MTT) was added to each 100 μL cell suspension, and the cells were incubated for 4 hours at […] in a 5% CO2 environment. […] To each sample was added 100 μl of 10% sodium dodecylsulfate in 0.01N HCl to lyse the cells, and samples were incubated overnight. The absorbance at 590 nm was determined for each sample using a Molecular Devices microplate reader. Absorbance values for each set of wells is compared to assess viral control infection, uninfected control cell response as well as test compound by cytotoxicity and antiviral efficacy.

`CNCC(=O)N[C@H](C(=O)N[C@@H](Cc1ccccc1)[C@H](O)CN(CCC(C)C)C(=O)NC(C)(C)C)C(C)(C)SC` [5 (Part I), (2R, 3S)-3-(N-methylaminoacetyl-S-methyl-L-penicillaminyl)amido-1-[N-isoamyl-N-(tert-butylcarbamoyl)]amino-4-phenyl-2-butanol] showed an IC50 at HIV protease of 14 nM. With `CC[C@H](C)[C@H](NC(=O)CN(C)C)C(=O)N[C@@H](Cc1ccccc1)[C@H](O)CN(CCC(C)C)C(=O)NC(C)(C)C` [Example 3, (2R,3S)-3-(N,N-dimethylaminoacetyl-L-isoleucinyl)amido-1-[N-isoamyl-N-(tert-butylcarbamoyl)]amino-4-phenyl-2-butanol], the 50% inhibitory concentration (IC50) against HIV protease turned out to be 14 nM. Besides, in the assay on HIV-1 in CEM cells, the concentration giving a half-maximal response (EC50) is 66 nM. For the compound `CC(C)CCN(C[C@@H](O)[C@H](Cc1ccccc1)NC(=O)[C@@H](NC(=O)[C@H](C)N(C)C(=O)OCc1ccccc1)C(C)(C)C)C(=O)NC(C)(C)C` [Example 13, (2R, 3S)-3-(N-benzyloxycarbonyl-N-methyl-L-alaninyl-L-tert-butylglycinyl)amino-1-[N-isoamyl-N-(tert-butylcarbamoyl)]amino-4-phenyl-2-butanol], the IC50 against HIV protease worked out at 14 nM. Further, in the assay on HIV-1 in CEM cells, it took 0.034 µg/mL to reach a half-maximal effect (EC50). Taken in the same sequence, the figures for `CN[C@@H](C)C(=O)N[C@H](C(=O)N[C@@H](Cc1ccccc1)[C@H](O)CN(CCC(C)C)C(=O)NC(C)(C)C)C(C)(C)C` [Example 14, (2R, 3S)-3-(N-methyl-L-alaninyl-L-tert-butylglycinyl)amino-1-[N-isoamyl-N-(tert-butylcarbamoyl)]amino-4-phenyl-2-butanol] were 8 nM and 0.096 µg/mL.

`CC(C)CCN(C[C@@H](O)[C@H](Cc1ccccc1)NC(=O)[C@@H](NC(=O)[C@@H](C)N(C)C(=O)OCc1ccccc1)C(C)(C)C)C(=O)NC(C)(C)C` [Example 15, (2R, 3S)-3-(N-benzyloxycarbonyl-N-methyl-D-alaninyl-L-tert-butylglycinyl)amino-1-[N-isoamyl-N-(tert-butylcarbamoyl)]amino-4-phenyl-2-butanol] gave an IC50 on HIV protease of 70 nM. `CN[C@H](C)C(=O)N[C@H](C(=O)N[C@@H](Cc1ccccc1)[C@H](O)CN(CCC(C)C)C(=O)NC(C)(C)C)C(C)(C)C` [Example 16, (2R, 3S)-3-(N-methyl-D-alaninyl-L-tert-butylglycinyl)amino-1-[N-isoamyl-N-(tert-butylcarbamoyl)]amino-4-phenyl-2-butanol]: 18 nM corresponded to half-maximal inhibition at HIV protease (IC50). In the assay on HIV-1 in CEM cells, this compound yielded an EC50 of 0.059 µg/mL. In the case of `CC(C)CCN(C[C@@H](O)[C@H](Cc1ccccc1)NC(=O)[C@@H](NC(=O)CNC(=O)OC(C)(C)C)C(C)(C)C)C(=O)NC(C)(C)C` [Example 17, (2R, 3S)-3-(N-tert-butoxycarbonyl-glycinyl-L-tert-butylglycinyl) amino-1-[N-isoamyl-N-(tert-butylcarbamoyl)]amino-4-phenyl-2-butanol], on HIV protease, the half-maximal inhibitory concentration (IC50) was determined as 10 nM. Consider `CC(C)CCN(C[C@@H](O)[C@H](Cc1ccccc1)NC(=O)[C@@H](NC(=O)CN)C(C)(C)C)C(=O)NC(C)(C)C` [Example 18, (2R, 3S)-3-(glycinyl-L-tert-butylglycinyl)amino-1-[N-isoamyl-N-(tert-butylcarbamoyl)]amino-4-phenyl-2-butanol Hydrochloride Salt], for which half-maximal inhibition against HIV protease (IC50) required 10 nM. In the assay with HIV-1 in CEM cells, the midpoint of the response, the EC50, lay at 0.038 µg/mL. Regarding `CC(C)CCN(C[C@@H](O)[C@H](Cc1ccccc1)NC(=O)[C@@H](NC(=O)[C@@H]1CCCN1C(=O)OCc1ccccc1)C(C)(C)C)C(=O)NC(C)(C)C` [Example 19, (2R, 3S)-3-(N-benzyloxycarbonyl-L-prolyl-L-tert-butylglycinyl) amino-1-[N-isoamyl-N-(tert-butylcarbamoyl)]amino-4-phenyl-2-butanol], at HIV protease, 2200 nM corresponded to half-maximal inhibition (IC50). Regarding `CC(C)CCN(C[C@@H](O)[C@H](Cc1ccccc1)NC(=O)[C@@H](NC(=O)[C@@H]1CCCN1)C(C)(C)C)C(=O)NC(C)(C)C` [Example 20, (2R, 3S)-3-(L-prolyl-L-tert-butylglycinyl)amino-1-[N-isoamyl-N-(tert-butylcarbamoyl)]amino-4-phenyl-2-butanol], at HIV protease, 9 nM corresponded to half-maximal inhibition (IC50). Turning to `CC(C)CCN(C[C@@H](O)[C@H](Cc1ccccc1)NC(=O)[C@@H](NC(=O)[C@@H]1CCCN1C(=O)OC(C)(C)C)C(C)(C)C)C(=O)NC(C)(C)C` [Example 21, (2R, 3S)-3-(N-tert-butoxycarbonyl-L-prolyl-L-tert-butylglycinyl) amino-1-[N-isoamyl-N-(tert-butylcarbamoyl)]amino-4-phenyl-2-butanol], at HIV protease (@ 10 μM, read-out: inhibition of HIV protease (IC50)), the inhibition at 10 µM stood at 61%. As to `CC[C@H](C)[C@H](NC(=O)[C@@H](C)N(C)C(=O)OCc1ccccc1)C(=O)N[C@@H](Cc1ccccc1)[C@H](O)CN(CCC(C)C)C(=O)NC(C)(C)C` [Example 22, (2R, 3S)-3-(N-benzyloxycarbonyl-N-methyl-D-alaninyl-L-isoleucinyl)amino-1-[N-isoamyl-N-(tert-butylcarbamoyl)]amino-4-phenyl-2-butanol], at HIV protease, the IC50 was 370 nM. This counts as sub-micromolar. Still for that read-out and setting: with `CC[C@H](C)[C@H](NC(=O)[C@@H](C)NC)C(=O)N[C@@H](Cc1ccccc1)[C@H](O)CN(CCC(C)C)C(=O)NC(C)(C)C` [Example 23, (2R, 3S)-3-(N-methyl-D-alaninyl-L-isoleucinyl)amino-1-[N-isoamyl-N-(tert-butylcarbamoyl)]amino-4-phenyl-2-butanol] the figure was 79 nM. With `CC[C@H](C)[C@H](NC(=O)[C@@H]1CCCN1C(=O)OCc1ccccc1)C(=O)N[C@@H](Cc1ccccc1)[C@H](O)CN(CCC(C)C)C(=O)NC(C)(C)C` [Example 24, (2R, 3S)-3-(N-benzyloxycarbonyl-L-prolyl-L-isoleucinyl)amino-1-[N-isoamyl-N-(tert-butylcarbamoyl)]amino-4-phenyl-2-butanol], at HIV protease, the IC50 came out at 520 nM. In turn, `CC[C@H](C)[C@H](NC(=O)[C@@H]1CCCN1)C(=O)N[C@@H](Cc1ccccc1)[C@H](O)CN(CCC(C)C)C(=O)NC(C)(C)C` [Example 25, (2R, 3S)-3-(L-prolyl-L-isoleucinyl)amino-1-[N-isoamyl-N-(tert-butylcarbamoyl)]amino-4-phenyl-2-butanol] returned an IC50 at HIV protease of 51 nM.

Broadly, the IC50 is the concentration needed to halve the response being measured. A low value points to greater potency in that assay. Broadly, the EC50 is the concentration giving half of the maximal effect. A higher EC50 goes with weaker potency. The term inhibition denotes the share of the control response that was lost under treatment.
